Read-outs that look alike come from different tables or passages of the source.

The text below walks through data of paper PMC9785311, “Effect of Structural Differences in Naringenin, Prenylated Naringenin, and Their Derivatives on the Anti-Influenza Virus Activity and Cellular Uptake of Their Flavanones” (Pharmaceuticals, 2022).

For data set [1], the system named is influenza virus A/PR/8/34. Kind of data set: microbe, parasite or virus in culture. The class given is cell-based, Type A influenza virus H1N1 (PR/8/34). Particulars: for SI (Selectivity index = CC50/IC50): CC50 50% cytotoxicity concentration in MDCK cells (MTT), IC50 against A/PR/8/34.
The subject of data set [2] is MDCK cells. Kind of data set: Intracellular distribution by fluorescence microscopy of fixed cells. Particulars: 30 μM, 180 min exposure, fixed with 4% paraformaldehyde, DAPI. The class given is cell-based, canine. As to the method: Cells cultured on glass plates were exposed to a concentration of 30 μM for 180 min. The exposed cells were washed with PBS and the compounds were removed from the medium. The cells were then fixed with 4% paraformaldehyde and observed under a fluorescence microscope. […] The amount of naringenin taken up by the cells may be small. Moreover, fluorescence was detected for prenylated naringenin.
Figure 4 Analysis of prenylated naringenin and naringenin fluorescence distribution by imaging. After removing the medium, cells were treated with 30 μM compound for 180 min and fixed with 4% paraformaldehyde. Fixed cells were stained with DAPI (blue). These images show fluorescence of 8-prenylnaringenin (8-PN; A), 6-prenylnaringenin (6-PN; B), and naringenin (C). Scale bars = 50 μm.
Cells were cultured on glass plates and incubated in a medium supplemented with the compound for 180 min. They were then washed and fixed with 4% paraformaldehyde for 30 min. After washing with PBS, DAPI staining was performed. Intracellular distribution was photographed and observed using an inverted fluorescence phase-contrast microscope (BZ-X800, Keyence, Osaka, Japan).

The subject of data set [3] is MDCK cells. Briefly: Efflux of prenylated naringenin after intracellular saturation. The class given is cell-based, canine. Particulars: for Release of intracellular compound from the cell: after 180 min exposure, compound-free DMEM containing 1% FBS, 0-240 min; for Fluorescence intensity change after 120 min culture in compound-free medium compared to 0 min: cells saturated by 180 min exposure, then DMEM containing 1% FBS for 120 min. The protocol:
Based on our results, we examined the kinetics of intracellular prenylated naringenin in Dulbecco’s Modified Eagle Medium (DMEM) containing 1% fetal bovine serum (FBS). […] The intracellular kinetics changed greatly depending on the position of the prenyl group. After 120 min of culturing in the medium, the fluorescence intensity of 8-PN and 6-PN increased approximately 1.6-fold and 9.4-fold, respectively, compared to that at 0 min (Figure 6).
Figure 5 Efflux of prenylated naringenin after intracellular saturation. The amount of the compound in the cells was saturated by exposure for 180 min, and the cells were cultured in Dulbecco’s Modified Eagle Medium (DMEM) for 0, 120, and 240 min. After removing the medium, cells were fixed with 4% paraformaldehyde and stained with DAPI (blue). These images show 8-PN (A) and 6-PN (B) fluorescence. Scale bars = 50 μm.
Figure 6 Efflux and fluorescence intensity of intracellular prenylated naringenins. Fluorescence intensity of 8-PN and 6-PN from Figure 5. The standard deviation bars are indicated on each bar graph. *** p < 0.001.

Data set [4] deals with influenza virus A/PR/8/34. Kind of data set: Time-of-addition assay. The class given is cell-based, Type A influenza virus H1N1 (PR/8/34). Particulars: 30 μM, MOI 0.01. An excerpt: We performed a time-of-addition assay to verify the effect of the prenyl group position on viral growth inhibition. Figure 7A,B show virus viability when exposed to each prenylated naringenin for each time duration. […] In previous studies, inhibitory effects differed depending on the flavonoid backbone. The anti-influenza virus effect depends on the position of the prenyl group, which is a novel observation of the present study.
Figure 7 Effect of prenylated naringenin on virus viability. (A) 8-PN and 6-PN (30 μM). (B) Schedule of the experiment. Cells were infected with influenza virus A/PR/8/34 at a multiplicity of infection of 0.01 in 24-well plates. After infection at each time point, the cells were harvested and viruses were assayed using a focus-forming reduction assay. […] Data are representative of three independent experiments. Standard deviation bars indicate each bar graph (*** p < 0.001, ** p < 0.01).
We conducted a time-of-addition assay as previously described. DMEM containing prenylated naringenin (30 μM) was added at −1–0 h (adsorption), 0–8 h (replication), 0–4 h, 0–2 h, 2–4 h, 4–8 h, 4–6 h, and 6–8 h. Furuta et al. estimated the intracellular cycle of infected cells before extracellular budding to be 8 h, and growth stages were assumed to occur at 2 h intervals.

The test system of data set [5] is MDCK cells. Kind of data set: Cellular uptake by fluorescence microscopy. Particulars: 30 μM compound, phenol red-free medium, 60-360 min, about 20 cells per time point.
The mark [6] stands for this setting: A/PR/8/34 strain in MDCK cells, mean ± SD of three independent experiments, ND = not detected.

As to `CC(C)CCc1c(O)cc(O)c2c1OC(c1ccc(O)cc1)CC2=O` (stereo not drawn) [1d], the “SI (Selectivity index = CC50/IC50)” value in data set [1] is reported as 3.0. The compound further came in with a 50% inhibitory concentration (IC50) in data set [1] (PR/8, MDCK) of 61 ± 14 µM.

For `CC(C)=CCc1c(O)cc2c(c1O)C(=O)C[C@@H](c1ccc(O)cc1)O2` [6-PN, 6-prenylnaringenin], in data set [1], the “SI (Selectivity index = CC50/IC50)” value is given as 5.5. The compound further showed an IC50 in data set [1] (PR/8, MDCK) of 38 ± 4.7 µM. The “Intracellular distribution of fluorescence” value in the data set with MDCK cells [2] is recorded as “localize to the cytoplasmic periphery”. In the data set on MDCK cells [3], the “Release of intracellular compound from the cell” value was “released relatively quickly” and the “Fluorescence intensity change after 120 min culture in compound-free medium compared to 0 min” value is recorded as about 9.4 fold. Besides, in data set [4], the “Inhibition of virus growth, 2 h exposure (4–6 h after infection)” value was “high inhibition tendency” and the “Inhibition of virus growth, late stage (6–8 h)” value is “block the late stage of viral growth”. Moreover, in the data set with MDCK cells [5], the “Fluorescence intensity (intracellular uptake)” value is “high fluorescence intensity”.

Turning to `CC(=O)Oc1ccc(C2CC(=O)c3c(O)cc(OC(C)=O)cc3O2)cc1` (stereo not drawn) [Naringenin-4′,7′-diacetate], the half-maximal inhibitory concentration (IC50) result in data set [1] (A/PR/8/34 strain in MDCK cells, mean ± SD of three independent experiments, ND = not detected, listed as naringenin-4′,7-diacetate) was “markedly lost its anti-influenza activity”; in data set [1] (A/PR/8/34 strain in MDCK cells, mean ± SD of three independent experiments, ND = not detected, listed as naringenin-4′,7′-diacetate) it was “lost its activity”.

In the case of `CC(C)CCc1c(O)cc2c(c1O)C(=O)CC(c1ccc(O)cc1)O2` (stereo not drawn) [2b], the concentration for half-maximal inhibition (IC50) entry is “weaker activities than 6-PN” in data set [1] (setting [6]) and 58 ± 15.2 µM in data set [1] (PR/8, MDCK). Besides, the “SI (Selectivity index = CC50/IC50)” value in data set [1] is 1.3.

Compound `O=C1CC(c2ccc(O)cc2)Oc2cc(O)c(CC=C3CCCCC3)c(O)c21` (stereo not drawn) [2c] displayed a melting point of 204.4 to 205.2 °C. Further, in data set [1] (setting [6]), the IC50 entry is recorded as “not detected”.

For the compound `C=CCc1c(O)cc2c(c1O)C(=O)C[C@@H](c1ccc(O)cc1)O2` (racemic) [2a, 6-allylnaringenin], the IC50 result in data set [1] (setting [6]) was “weaker activities than 6-PN”; in data set [1] (PR/8, MDCK) it was 103 ± 3.8 µM. Also, in data set [1], the “SI (Selectivity index = CC50/IC50)” value amounted to 0.8.

For (±)-Naringenin [reference compound], the IC50 in data set [1] (A/PR/8/34 strain in MDCK cells, mean ± SD of three independent experiments, ND = not detected, read-out: IC50) worked out at 290 ± 16.2 µM. In addition, in data set [1], the “SI (Selectivity index = CC50/IC50)” value stood at 4.9.

The compound `CC1(C)OC1Cc1c(O)cc(O)c2c1OC(c1ccc(O)cc1)CC2=O` (stereo not drawn) [1a] gave a melting point of 191.5 to 193 °C. Further, the “SI (Selectivity index = CC50/IC50)” value in data set [1] stood at 2.7. 59 ± 9 µM corresponded to half-maximal inhibition in data set [1] (PR/8, MDCK) (IC50).

Consider `CC(=O)Oc1ccc(C2CC(=O)c3c(O)cc(OC(C)=O)c(CCC(C)C)c3O2)cc1` (stereo not drawn) [1c], for which, in data set [1], the “SI (Selectivity index = CC50/IC50)” value is 6.3. The same compound returned an IC50 in data set [1] (PR/8, MDCK) of 42 ± 2.1 µM.

In the case of `CCC(CC)O[C@@H]1C=C(C(=O)O)C[C@H](N)[C@H]1NC(C)=O` [oseltamivir acid, reference compound], in data set [1] (PR/8, MDCK), the IC50 amounted to 0.002 µM.

Turning to `C=C(C)C(Cc1c(O)cc(O)c2c1OC(c1ccc(O)cc1)CC2=O)OC(C)=O` (stereo not drawn) [1b], the melting point fell in the range of 189 to 191.5 °C. Further, the IC50 entry in data set [1] (setting [6]) was “lost and not active”.

Regarding `O=C1CC(c2ccc(O)cc2)Oc2cc(O)c(CCC3CCCCC3)c(O)c21` (stereo not drawn) [2d], the melting point lay in the range of 213.3 to 215.3 °C. The half-maximal inhibitory concentration (IC50) entry in data set [1] (setting [6]) is listed as “not detected”.

For `CC(=O)OC(Cc1c(O)cc(O)c2c1OC(c1ccc(O)cc1)CC2=O)C(C)C` (stereo not drawn) [1e], the melting point fell in the range of 155 to 156 °C. Besides, the 50% inhibitory concentration (IC50) result in data set [1] (setting [6]) was “lost and not active”.

On to `CC(C)=CCc1c(O)cc(O)c2c1O[C@H](c1ccc(O)cc1)CC2=O` [8-PN, 8-prenylnaringenin], for which the “SI (Selectivity index = CC50/IC50)” value in data set [1] is 4.9. This compound also had an IC50 in data set [1] (PR/8, MDCK) of 24 ± 0.6 µM. For the same compound, in the data set with MDCK cells [2], the “Intracellular distribution of fluorescence” value was “distributed mostly in the cytoplasm and nucleus”. For the same compound, in the data set on MDCK cells [3], the “Release of intracellular compound from the cell” value is given as “released from the cell slowly” and the “Fluorescence intensity change after 120 min culture in compound-free medium compared to 0 min” value is on record as “approximately 1.6 fold”. In data set [4], the “Inhibition of virus growth, exposure during virus adsorption period (−1–0 h)” value was “high inhibitory effect” and the “Inhibition of virus growth, late stage (6–8 h)” value is recorded as “block the late stage of viral growth”. For the same compound, the “Fluorescence intensity (intracellular uptake)” value in the data set on MDCK cells [5] was “high fluorescence intensity”.
